≈ marks a conversion by molar mass, not a printed value. Read-outs that look alike come from different tables or passages of the source.
How the values were obtained:
[1] = tested on: P. falciparum K1 strain (Thailand resistant to chloroquine); assay: semiautomated microdilution assay, [3H]-hypoxanthine incorporation, K1 strain; format: cell-based, Plasmodium falciparum; details: K1 strain, 72 h incubation
How it was run: (§1)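 IC50 values come from logit regression of semiautomated microdilution data obtained on intraerythrocytic parasites drawn from asynchronous cultures.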

[2] = tested on: ANKA strain of P. berghei; assay: single dose STI in vivo screen in infected mice; set-up: species or system Plasmodium berghei; details: for Activity (%) po / Survival (days) po: single 10 mg/kg po in 3% ethanol and 7% Tween 80; for Activity (%) po / Activity (%) sc / Activity (%) SSVpo: mice; for Activity (%) sc / Survival (days) sc: single 10 mg/kg sc in 3% ethanol and 7% Tween 80; for Activity (%) SSVpo: single po dose in standard suspending vehicle (SSV); for Survival (days) po / Survival (days) sc / Survival (days) SSVpo: untreated control 5.6 ± 0.3; for Survival (days) SSVpo: single po dose in SSV
How it was run: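 Groups of 3-5 Moro SPF or NMRI mice infected with the ANKA strain of P. berghei received a single dose of trioxolane on day one post-infection. The compound was given in 3% ethanol and 7% Tween 80 or in SSV (0.5% w/v CMC, 0.5% v/v benzyl alcohol, 0.4% v/v Tween 80, 0.9% w/v sodium chloride in water). Antimalarial activity was scored as percent reduction in parasitemia on day three and as survival time versus untreated controls. Survival to day 30 counted as cure.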

[3] = tested on: Schistosoma mansoni adult schistosomes (49-day-old); assay: effect on adult schistosomes (49-day-old) in mice; format: in vivo; details: for adult worms at day 49, per os 400 mg/kg, DEAD WORM (%) / % reduction of adult worms growth at day 49 after per os application of 400 mg/kg, TWR (%): single 400 mg/kg per os; for adult worms at day 49, per os 600 mg/kg, DEAD WORM (%) / % reduction of adult worms growth at day 49 after per os application of 600 mg/kg, TWR (%): single 600 mg/kg per os
Method: Mice were infected with 100 Schistosoma mansoni cercariae […]. Each group was treated per os with OZ compounds at single doses of 200, 400, and 600 mg/kg. […] All groups were killed 4 weeks after treatment and the liver and intestine were removed and separated. The liver and intestine were compressed and alive male and female worms could be seen and counted.

[4] = tested on: ANKA strain of Plasmodium berghei; assay: single dose ED50/ED90/ED99 determinations in infected mice; format: in vivo; details: single dose po in SSV, mice, percent reduction in parasitemia on day three post-infection
How it was run: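 Mice (Moro SPF or NMRI, n=3 per group) infected with P. berghei ANKA received a single dose on day 1 post-infection, vehicle 0.5% CMC/0.5% benzyl alcohol/0.4% Tween 80/0.9% NaCl in water. Read-out is percent reduction in parasitemia on day 3; ED values by nonlinear fitting.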

P. falciparum = assay: in vitro potency against P. falciparum (strain not stated); format: cell-based; details: Plasmodium falciparum
neuroblastoma cell line = assay: toxicity in a neuroblastoma cell line; format: cell-based
[5] = Rane test, single 640 mg/kg doses in mice; format: in vivo
[6] = tested on: parasitemia (malaria infection); assay: onset of action and recrudescence experiments; format: in vivo; details: single 100 mg/kg po (SSV) on day +3 post-infection; recrudescence = >5% parasitemia; followed up to 60 days; (n/5) = animals
Method: The onset of drug action was determined after a single fixed dose of 100 mg/kg (SSV vehicle) po to groups of five animals on day +3 post-infection (day 0).

[7] = tested on: Schistosoma mansoni 21-day-old schistosomules; assay: effect on 21-day-old schistosomules in mice; format: in vivo; details: single 200 mg/kg per os, female mice
Method: All groups were killed 4 weeks after treatment and the liver and intestine were removed and separated. The liver and intestine were compressed and alive male and female worms could be seen and counted. The effect of the compounds was evaluated by mean total and female worm burden.

dosing in rats = format: in vivo; details: rat; for IV t1/2 (10 mg/kg): IV 10 mg/kg; for Oral Bioavailability 10 mg/kg: oral 10 mg/kg; for Oral Bioavailability 25 mg/kg / Oral t1/2 (25 mg/kg): oral 25 mg/kg
Source text: (§2) Artesunate is listed as a reference compound.

dosing in dogs = format: in vivo; details: dog; for IV t1/2 (10 mg/kg): IV 10 mg/kg; for Oral t1/2 (10 mg/kg) / Oral Bioavailability 10 mg/kg: oral 10 mg/kg; for Oral Bioavailability 10 mg/kg / Oral Bioavailability 25 mg/kg: OZ 279, OZ 256, OZ 209 values flagged (V); for Oral Bioavailability 25 mg/kg: oral 25 mg/kg
Source text: as §2

[8] = tested on: Schistosoma mansoni adult schistosomes (49-day-old); assay: effect on adult schistosomes (49-day-old) in mice; format: in vivo; details: 1 × 600 mg/kg sc.
[9] = tested on: P. falciparum NF54 strain (sensitive to standard antimalarials); assay: semiautomated microdilution assay, [3H]-hypoxanthine incorporation, NF54 strain; format: cell-based, Plasmodium falciparum; details: for IC50 (ng/ml) NF54: NF54 strain, 72 h incubation
How it was run: as §1

[10] = format: physicochemical
Source text: It is presumed that thermal decomposition of these trioxolanes was initiated by formation of a 1,5 diradical produced by homolytic cleavage of the peroxide bond of the trioxolane ring.

Schistosoma japonicum = assay: effect in mice infected with Schistosoma japonicum; format: in vivo; details: for MFWB/x ± SD (mean female worm burden): control 11.6 ± 2.4; for MTWB/x ± SD (mean total worm burden): control 26.6 ± 4.2
[11] = percent reduction in parasitemia day 3 post-infection
[12] = age of worm 7 days, 200 mg/kg x 1
[13] = age of worm 35 days, 200 mg/kg x 1
[14] = age of worm 35 days, 400 mg/kg x 1

| SMILES | Activity (%) po [2, 11] [%] | Activity (%) sc [2, 11] [%] | Activity (%) SSVpo [2, 11] [%] | Survival (days) po [2] [days] | Survival (days) sc [2] [days] | Survival (days) SSVpo [2] [days] | adult worms at day 49, per os 200 mg/kg, DEAD WORM (%) ([3]; single 200 mg/kg per os) | adult worms at day 49, per os 400 mg/kg, DEAD WORM (%) [3] | adult worms at day 49, per os 600 mg/kg, DEAD WORM (%) [3] [%] | ED90 [4] [mg/kg] | ED99 [4] [mg/kg] | IC50 (P. falciparum) [ng/mL] | toxicity in a neuroblastoma cell line (neuroblastoma cell line) | toxicity at single 640 mg/kg doses in mice in the Rane test [5] | Survival (days) 10 mg/kg SSV po ([2]; single 10 mg/kg po in SSV) [days] | Time of Recrudescence [6] [days] | % reduction of schistosomule growth at day 21 after per os application of 200 mg/kg, FWR (%) [7] [%] | % reduction of adult worms growth at day 49 after per os application of 400 mg/kg, TWR (%) [3] | % reduction of adult worms growth at day 49 after per os application of 600 mg/kg, TWR (%) [3] [%] | ED50 [4] [mg/kg] | other results |
| --- | --- | --- | --- | --- | --- | --- | --- | --- | --- | --- | --- | --- | --- | --- | --- | --- | --- | --- | --- | --- | --- |
| O=C1CCC2(CC1)OOC1(O2)C2CC3CC(C2)CC1C3 (stereo not drawn) [OZ05] | 94 | 99.7 | 74 | 7.1 | 8.6 | 6.2 | 12 | 32% | 58 | 12 | 15 | 1 to 5 (≈ 3.59 to 18 nM) | no toxicity | no toxicity | – | – | – | – | – | – | IC50 ([1]; Plasmodium falciparum, read-out: IC50 (ng/ml) K1): 0.19 ng/mL (≈ 0.683 nM); ED50 ([4]; Plasmodium berghei, read-out: ED50): 8.7 mg/kg |
| CC(C)(N)CNC(=O)C[C@H]1CC[C@]2(CC1)OO[C@]1(O2)C2CC3CC(C2)CC1C3 [OZ277] | – | – | – | – | – | – | – | 0/0% | 14 | 2.0 | 4.4 | – | – | – | 9.3 | 13.0 | 92 | 0/0% | 17 | 0.78 | Activity (%) 3 mg/kg SSV po ([2]; percent reduction in parasitemia day 3 post-infection, single 3 mg/kg po in SSV): 99.28%; Activity (%) 10 mg/kg SSV po ([2]; percent reduction in parasitemia day 3 post-infection, single 10 mg/kg po in SSV): 99.98%; % reduction of schistosomule growth at day 21 after per os application of 200 mg/kg, TWR (%) [7]: 91%; IV t1/2 (10 mg/kg) (dosing in rats): 1.29 h; Oral Bioavailability 10 mg/kg (dosing in rats): 36.9%; Oral Bioavailability 25 mg/kg (dosing in rats): 44.1%; Oral t1/2 (25 mg/kg) (dosing in rats): 1.51 h; IV t1/2 (10 mg/kg) (dosing in dogs): 1.58 h; Oral t1/2 (10 mg/kg) (dosing in dogs): 2.468 h; Oral Bioavailability 10 mg/kg (dosing in dogs): 87.9%; Oral Bioavailability 25 mg/kg (dosing in dogs): 96.1%; % reduction of adult worms growth, 1 × 600 sc., TWR (%) [8]: 39%; adult worms, 1 × 600 sc., DEAD WORM (%) [8]: 17% |
| C1CCC2(CC1)OOC1(O2)C2CC3CC(C2)CC1C3 (stereo not drawn) [OZ03] | – | – | – | – | – | – | – | – | – | – | – | 1 to 5 (≈ 3.78 to 18.9 nM) | no toxicity | no toxicity | – | – | – | – | – | – | IC50 ([9]; Plasmodium falciparum, NF54, 72 h, read-out: IC50 (ng/ml) NF54): 1.6 ng/mL (≈ 6.05 nM) |
| C[C@@H]1CC[C@H]2[C@@H](C)C(=O)O[C@@H]3O[C@@]4(C)CC[C@@H]1[C@]32OO4 [Artemisinin, artemisinin] | – | – | – | – | – | – | – | – | – | – | – | – | – | – | – | – | – | – | – | – | Tm, dec (DSC thermal stability) [10]: 181 °C |
| Cc1ccc(S(=O)(=O)O)cc1.O=C(C[C@H]1CC[C@]2(CC1)OO[C@]1(O2)C2CC3CC(C2)CC1C3)N1CCNCC1 [OZ279] | – | – | – | – | – | – | – | 12% | 20 | 1.8 | 3.9 | – | – | – | 9.3 | 15.0 | 88 | 0% | 33 | 0.63 | IC50 (ng/ml) K1 [1]: 0.21 ng/mL; IC50 (ng/ml) NF54 [9]: 0.24 ng/mL; Survival (days) 3 mg/kg SSV po ([2]; single 3 mg/kg po in SSV): 8.4 days; % reduction of schistosomule growth at day 21 after per os application of 200 mg/kg, TWR (%) [7]: 86%; IV t1/2 (10 mg/kg) (dosing in rats): 1.675 h; Oral Bioavailability 10 mg/kg (dosing in rats): 37.2%; Oral Bioavailability 25 mg/kg (dosing in rats): 71.1%; Oral t1/2 (25 mg/kg) (dosing in rats): 2.78 h; IV t1/2 (10 mg/kg) (dosing in dogs): 2.958 h; Oral t1/2 (10 mg/kg) (dosing in dogs): 3.255 h; Oral Bioavailability 10 mg/kg (dosing in dogs): 32.8%; Oral Bioavailability 25 mg/kg (dosing in dogs): 55.7%; % reduction of adult worms growth, 1 × 600 sc., TWR (%) [8]: 21%; adult worms, 1 × 600 sc., DEAD WORM (%) [8]: 27% |
| Cc1ccc(S(=O)(=O)O)cc1.NC[C@H]1CC[C@]2(CC1)OOC1(O2)C2CC3CC(C2)CC1C3 (stereo partly drawn) [OZ207] | 99.96 | 99.98 | 99.98 | 9.3 | 11.3 | 12.0 | 17 | 21% | 24 | 1.2 | 3.0 | – | – | – | – | – | – | 35% | 11 | 0.37 | IC50 (ng/ml) K1 [1]: 0.33 ng/mL; IC50 (ng/ml) NF54 [9]: 0.57 ng/mL; Time of Recrudescence (days) [6]: no recrudescence; Mice without ♀ worm (Schistosoma japonicum; [12]): 0/8; MFWB/x ± SD (mean female worm burden) (Schistosoma japonicum; [12]): 2.1 ± 1.0; MTWB/x ± SD (mean total worm burden) (Schistosoma japonicum; [12]): 5.4 ± 2.4; FWRR/% (female worm reduction rate) (Schistosoma japonicum; [13]): 95%; Mice without ♀ worm (Schistosoma japonicum; [13]): 4/7; WRR/% (worm reduction rate) (Schistosoma japonicum; [13]): 66%; MFWB/x ± SD (mean female worm burden) (Schistosoma japonicum; [13]): 0.6 ± 0.7; MTWB/x ± SD (mean total worm burden) (Schistosoma japonicum; [13]): 9.1 ± 3.9; FWRR/% (female worm reduction rate) (Schistosoma japonicum; [14]): 94%; Mice without ♀ worm (Schistosoma japonicum; [14]): 4/6; MFWB/x ± SD (mean female worm burden) (Schistosoma japonicum; [14]): 0.7 ± 1.2; MTWB/x ± SD (mean total worm burden) (Schistosoma japonicum; [14]): 4.3 ± 1.2; Tox (mice) ([3]; 600 mg/kg per os, infected mice): Tox: ++2/5; % reduction of adult worms growth at day 49 after per os application of 200 mg/kg, TWR (%) ([3]; single 200 mg/kg per os): 32% |
